We go through one substance from patent publication US20250017949A1, “METHODS AND COMPOSITIONS FOR SUPPRESSING AGING-ASSOCIATED CLONAL HEMATOPOIESIS” (The Jackson Laboratory, priority 2021, published 2025).

Assay [1] deals with Dnmt3a-mutant HSCs. Description: PVA HSC culture with recombinant TNFα, cell number. Type of assay: cell-based, mouse. The conditions noted are these: recombinant TNFα added to mixed cultures of wild-type and Dnmt3a^R878H HSCs. The source says: (§1) FIGS. 6A-6I: Dnmt3a-mutant HSCs maintain self-renewal and generate B lymphoid cells following TNF stimulation. (FIG. 6A) Schematic of experimental design to test response of Mx-Cre control and Dnmt3a^R878H/+ HSCs to recombinant TNFα ex vivo under growth conditions that favor HSC expansion. (FIG. 6B) Normalized frequency of donor-derived cells in PB of recipient mice post-transplant. Significance calculated using mixed-effects model with Fisher's LSD. (FIG. 6C) Representative flow cytometry plots showing B cell and myeloid cell frequencies in donor derived PB at 4 weeks post-transplant. (FIG. 6D) Frequency of myeloid (left) and B cells (right) in donor derived PB at 4 weeks post-transplant. Significance calculated using two-way ANOVA with Sidak's multiple comparison's test. (FIG. 6E) Schematic of experimental design to test TNFα response of Fgd5-Cre^ERT control vs. Fgd5-Cre^ERT Dnmt3a^R878H/+ HSCs, and germline Dnmt3a^+/+ vs. Dnmt3a^+/− HSCs. (FIGS. 6F-6G) Viable cell counts after 7 days of culture. Significance calculated using Brown-Forsythe and Welch ANOVA with Welch's correction. (FIG. 6H) Frequency of donor-derived cells in PB of recipient mice post-transplant. Significance calculated using mixed-effects model with Fisher's LSD. (FIG. 6I) Frequency of myeloid (left) and B cells (right) in donor derived PB at 4 weeks post-transplant. Significance calculated using one-way ANOVA with Fisher's LSD. (FIGS. 6B, 6D, and 6F-6I) Dots represent individual recipient mice, boxes show 25 to 75th percentile, line is median, whiskers show min to max. *P<0.05, **P<0.01, ***P<0.001.
(§2) To assess the extent to which TNFα directly promotes young Dnmt3a-mutant HSC survival, we added recombinant TNFα to mixed cultures of wild-type and Dnmt3a-mutant HSCs in media that sustains HSC self-renewal (FIG. 6A). […]
(§3) Two months post-poly(I:C), 25 CD45.2^+ from Dnmt3a^+/+ Mx-Cre or Dnmt3a^fl-R878H/+ Mx-Cre donors (CD45.2+) and 25 CD45.1^+/CD45.2^+ HSCs were sorted into a 96-well plate with Ham's F12 media containing final concentrations of 1× Penicillin-streptomycin-glutamine (Gibco cat. #10378-016), 10 mM HEPES (Gibco cat. #15630080), 1× Insulin-transferrin-selenium-ethanolamine (Gibco cat. #51500-056), 100 ng/mL recombinant murine TPO (Biolegend cat. #593302), 10 ng/mL recombinant murine SCF (StemCell Technologies cat. #78064), and 1 mg/mL polyvinyl alcohol (Sigma cat. #P8136)^19+/−10 ng/mL recombinant murine TNF-α (PeproTech cat. #315-01A) and cultured for seven days at 37° C. and 5% CO2. […] On day 7, half of the wells were stained and analyzed by flow cytometry and half of the wells were harvested, mixed with 1×10^6 CD45.1^+ post-ficoll whole BM cells, and transplanted into young, lethally irradiated CD45.1^+ recipients. […]

For assay [2], the system named is control HSCs. Description: PVA HSC culture with recombinant TNFα, cell number. The format is cell-based, mouse.
Text: as §1, §2, §3

Assay [3] deals with Dnmt3a-mutant HSCs. The assay can be described thus: Transplant of TNFα-treated cultured HSCs into recipient mice. Type of assay: in vivo, mouse.
Text: as §1
(§4) To assess the extent to which TNFα directly promotes young Dnmt3a-mutant HSC survival, we added recombinant TNFα to mixed cultures of wild-type and Dnmt3a-mutant HSCs in media that sustains HSC self-renewal (FIG. 6A). […] Post culture, cells were transplanted into recipient mice to assess HSC function. […] Thus, TNFα-driven myeloid regeneration at the expense of HSC self-renewal is disrupted in Dnmt3a^R878H/+ HSCs. Instead, TNFα-treated Dnmt3a^R878H/+ HSCs favor lymphoid regeneration and maintain their self-renewal. To assess this in complementary models, we used tamoxifen-inducible Fgd5-Cre-driven Dnmt3a^R878H/+ mice as well as germline Dnmt3a^+/− mice to isolate HSCs for TNFα stimulation (FIG. 6E). […] Thus, TNFα-induced HSC survival and disrupted myeloid regeneration are broadly relevant to Dnmt3a-mutant clonal hematopoiesis.
(§5) Two months post-poly(I:C), 25 CD45.2^+ from Dnmt3a^+/+ Mx-Cre or Dnmt3a^fl-R878H/+ Mx-Cre donors (CD45.2+) and 25 CD45.1^+/CD45.2^+ HSCs were sorted into a 96-well plate with Ham's F12 media containing final concentrations of 1× Penicillin-streptomycin-glutamine (Gibco cat. #10378-016), 10 mM HEPES (Gibco cat. #15630080), 1× Insulin-transferrin-selenium-ethanolamine (Gibco cat. #51500-056), 100 ng/mL recombinant murine TPO (Biolegend cat. #593302), 10 ng/mL recombinant murine SCF (StemCell Technologies cat. #78064), and 1 mg/mL polyvinyl alcohol (Sigma cat. #P8136)^19+/−10 ng/mL recombinant murine TNF-α (PeproTech cat. #315-01A) and cultured for seven days at 37° C. and 5% CO2. TNF-α was spiked into the cultures on day 4 and 6. On day 7, half of the wells were stained and analyzed by flow cytometry and half of the wells were harvested, mixed with 1×10^6 CD45.1^+ post-ficoll whole BM cells, and transplanted into young, lethally irradiated CD45.1^+ recipients. PB was tracked monthly for six months post-transplant via flow cytometry.

The subject of assay [4] is control HSCs. The assay is described as above. Type of assay: in vivo, mouse.
Text: as §1, §4, §5

Setting [5] is: donor-derived cells in PB post-transplant, FIG. 6B.
Where [6] appears, read: post-transplant, data not shown.

Turning to TNFα, in the assay with Dnmt3a-mutant HSCs [1], the “Maintenance of Dnmt3a^R878H HSC progeny in mixed cultures” value is recorded as “preferential maintenance of Dnmt3a^R878H HSC progeny”. In addition, in the assay on control HSCs [2] (Mx-Cre control, 10 ng/mL TNF-α, seven days, data not shown), the “Number of control cells produced over the culture period” value is listed as “reduced the number of control”. The “Viable cell counts of control cells after 7 days of culture” value in the assay with control HSCs [2] (controls of the Fgd5-Cre and germline Dnmt3a^+/− models, FIGS. 6F-6G) is given as “reduced the number of control”. Moreover, the “Wild-type progeny in mixed cultures” value with control HSCs [2] (recombinant TNFα added to mixed cultures of wild-type and Dnmt3a^R878H HSCs) is recorded as “depletion of wild-type progeny”. For the same substance, the “Dnmt3a^+/− B lymphoid relative to myeloid cell production” value in the assay on Dnmt3a-mutant HSCs [3] (donor-derived PB at 4 weeks post-transplant, FIG. 6I) is listed as “transiently increased Dnmt3a^+/− B lymphoid relative to myeloid cell production”. Also, the “Dnmt3a^R878H/+ B lymphoid cell production” value with Dnmt3a-mutant HSCs [3] (donor-derived PB at 4 weeks post-transplant, FIGS. 6C-6D) is reported as “transiently increased Dnmt3a^R878H/+ B lymphoid cell production”. Moreover, the “Mature hematopoietic cell production and engraftment of TNFα-treated Dnmt3a^R878H/+ HSCs” value in the assay with Dnmt3a-mutant HSCs [3] (setting [5]) is “increased production of mature hematopoietic cells in the short term (4 weeks post-transplant) followed by sustained multilineage engraftment”. For the same substance, in the assay with Dnmt3a-mutant HSCs [3] (setting [6]), the “HSC, MPP^Mk/E and MPP^G/M populations in bone marrow from TNFα-treated Dnmt3a^R878H/+ HSCs” value is reported as “not observed in TNFα-treated Dnmt3a^R878H/+ HSCs”. The “Multilineage engraftment of TNFα-treated Dnmt3a^+/− HSCs” value with Dnmt3a-mutant HSCs [3] (vs TNFα-treated control HSCs, FIG. 6H) is reported as “sustained multilineage engraftment at a higher frequency than TNFα-treated control HSCs”. For the same substance, the “Long-term multilineage engraftment of TNFα-treated control HSCs” value in the assay with control HSCs [4] (setting [5]) was “did not sustain long-term multilineage engraftment”. The “HSC, MPP^Mk/E and MPP^G/M populations in bone marrow from TNFα-treated control HSCs” value in the assay on control HSCs [4] (setting [6]) was “trends toward reduced HSC, MPP^Mk/E, and MPP^G/M populations”.
